Reference: patent US20240124443A1, “PLASMIN INHIBITOR, PREPARATION METHOD THEREFOR, AND APPLICATION THEREOF” (SCINNOHUB PHARMACEUTICAL CO., LTD, priority 2021, published 2024)
Where a name gives a salt, the structure may show the parent alone.

Test system: degradation of plasma clots
Experiment: Plasma clot lysis assay
Format: biochemical, human
Conditions: not given
Experimental: To determine the inhibitory effect of the compounds of the invention on the degradation of plasma clots.
3.1 Collect fresh healthy human blood, mix 1 part of anticoagulant (0.109 M trisodium citrate) with 9 parts of blood, centrifuge at 2000×g for 20 min at room temperature, collect the supernatant (plasma), sub-package and store at −80° C. for later use.
3.2 On the day of experiment, the plasma was thawed in a water bath at 37° C., and all reagents except tPA were pre-warmed at 37° C.
3.3 Add 12.5 μL of 80 mM CaCl2 (HEPES buffer, pH 7.4) to a 96-well plate, and then add 25 μL of different concentrations of test compound diluted with normal saline, add an equal volume of normal saline to the negative control well.
3.4 Mix 50 μL of pre-warmed plasma with 12.5 μL of 4 nM tPA (HEPES buffer, pH 7.4), immediately add to a 96-well plate, measure the absorbance at 405 nm every 2 minutes, continuously for 15 hours.
The time corresponding to the median of the absorption value in the descending section—the time corresponding to the median of the absorption value in the ascending section is the plasma clot degradation time (Clot lysis time). Taking the plasma clot lysis time of the negative control well as a reference, calculate the relative value of the plasma clot lysis time in the wells treated with different concentrations of the compound and the plasma clot lysis time of the negative control well to obtain the inhibition rate:
Inhibition rate%=(1−Clot lysis time of negative control well/Clot lysis time of compound treated well)×100%
Taking the log value of the compound concentration as the X-axis, and the percentage inhibition rate as the Y-axis, and dose-response curves were fitted with the software GraphPad Prism 5 by using log (inhibitor) vs. Response-Variable slope to derive IC50 values of compounds inhibiting the degradation of plasma clots.
Formula: Y=min+(max−min)/(1+10^((LogIC50−X)×Hillslope).
With `Cl.O=C(O)c1ccc2c(n1)CC(C(O)CCCO)NC2` (stereo not shown) [Example 13, 7-(1,4-dihydroxybutyl)-5,6,7,8-tetrahydro-1,6-naphthyridine-2-carboxylic acid hydrochloride] the “IC50 ratio (IC50 Examples/IC50 Tranexamic acid)” value (“IC50 ratio” for short) was 1.63.

Same assay, conditions: human plasma, tPA, inhibition of plasma clot degradation in vitro relative to tranexamic acid
With `CC(C)CC1(CC(C)C)Cc2nc(C(=O)O)ccc2CN1.Cl` [Example 48] the “IC50 ratio” value was 0.42.
With `Cl.O=C(O)c1ccc2c(n1)CC(C(=O)OCCCO)NC2` (stereo not shown) [Example 30] the “IC50 ratio” value was 0.32.
In the case of `Cl.O=C(O)c1ccc2c(n1)CC(CCCCCO)NC2` (stereo not shown) [Example 28], the “IC50 ratio” value was 0.27.
With `CC(C)C(O)C1Cc2nc(C(=O)O)ccc2CN1.Cl` (stereo not shown) [Example 33] the “IC50 ratio” value was 0.53.
In the case of `O=C(O)c1ccc2c(n1)CC(CNCCCO)NC2` (stereo not shown) [Example 11, 7-(((3-hydroxypropyl)amino)methyl)-5,6,7,8-tetrahydro-1,6-naphthyridine-2-carboxylic acid dihydrochloride], the “IC50 ratio” value was 2.58.
In the case of `CC(C)(C)CC1Cc2nc(C(=O)O)ccc2CN1.Cl` (stereo not shown) [Example 36], the “IC50 ratio” value was 0.13.
For `Cl.O=C(O)c1ccc2c(n1)C(N1CCOCC1)CNC2` (stereo not shown) [Example 5, 8-morpholino-5,6,7,8-tetrahydro-1,6-naphthyridine-2-carboxylic acid hydrochloride], the “IC50 ratio” value was 0.29.
With `Cl.O=C(O)c1ccc2c(n1)C(N1CCS(=O)(=O)CC1)CNC2` (stereo not shown) [Example 6, 8-(1,1-dioxido-thiomorpholino)-5,6,7,8-tetrahydro-1,6-naphthyridine-2-carboxylic acid hydrochloride] the “IC50 ratio” value was 0.31.
For `CCCC1Cc2nc(C(=O)O)ccc2CN1.Cl` (stereo not shown) [Example 39], the “IC50 ratio” value was 0.17.
With `Cl.O=C(O)c1ccc2c(n1)CC(CO)NC2` (stereo not shown) [Example 23] the “IC50 ratio” value was 0.17.
In the case of `Cl.O=C(O)c1ccc2c(n1)C(N1CC[S+]([O-])CC1)CNC2` (stereo not shown) [Example 21], the “IC50 ratio” value was 0.14.
In the case of `COc1ccc(CCC2Cc3nc(C(=O)O)ccc3CN2)cc1.Cl` (stereo not shown) [Example 42], the “IC50 ratio” value was 0.17.
For `Cl.O=C(O)c1ccc2c(n1)CC(C1(O)CC1)NC2` (stereo not shown) [Example 9, 7-(1-hydroxycyclopropyl)-5,6,7,8-tetrahydro-1,6-naphthyridine-2-carboxylic acid hydrochloride], the “IC50 ratio” value was 0.44.
In the case of `CC(C)C1Cc2nc(C(=O)O)ccc2CN1.Cl` (stereo not shown) [Example 37], the “IC50 ratio” value was 0.18.
In the case of `Cl.O=C(O)c1ccc2c(n1)CC(Cc1ccccc1)NC2` (stereo not shown) [Example 27], the “IC50 ratio” value was 0.67.
In the case of `Cl.O=C(O)c1ccc2c(n1)CC1(CCCCC1)NC2` [Example 47], the “IC50 ratio” value was 0.40.
With `Cl.O=C(O)c1ccc2c(n1)CC(COCCO)NC2` (stereo not shown) [Example 32] the “IC50 ratio” value was 0.61.
With `Cl.O=C(O)c1ccc2c(n1)CC1(CCCC1)NC2` [Example 46] the “IC50 ratio” value was 0.33.
In the case of `Cl.O=C(O)c1ccc2c(n1)CC(C(=O)NCCO)NC2` (stereo not shown) [Example 29], the “IC50 ratio” value was 2.26.
With `Cl.O=C(O)c1ccc2c(n1)CC(CCC1CCCCC1)NC2` (stereo not shown) [Example 43] the “IC50 ratio” value was 0.11.
With `Cl.O=C(O)c1ccc2c(n1)C(OCCO)CNC2` (stereo not shown) [Example 18] the “IC50 ratio” value was 0.66.
With `CC(C)CCC1Cc2nc(C(=O)O)ccc2CN1.Cl` (stereo not shown) [Example 38] the “IC50 ratio” value was 0.13.
With `Cl.O=C(O)c1ccc2c(n1)C(N1CCCCC1)CNC2` (stereo not shown) [Example 19] the “IC50 ratio” value was 5.75.
For `Cl.O=C(O)c1ccc2c(n1)CC(CCCCO)NC2` (stereo not shown) [Example 10, 7-(4-hydroxybutyl)-5,6,7,8-tetrahydro-1,6-naphthyridine-2-carboxylic acid hydrochloride], the “IC50 ratio” value was 0.18.
In the case of `Cl.O=C(O)c1ccc2c(n1)CC(COCCCO)NC2` (stereo not shown) [Example 7, 7-((3-hydroxypropoxy)methyl)-5,6,7,8-tetrahydro-1,6-naphthyridine-2-carboxylic acid hydrochloride], the “IC50 ratio” value was 0.25.
For `Cl.O=C(O)c1ccc2c(n1)CC1(CCC1)NC2` [Example 49], the “IC50 ratio” value was 0.28.
With `Cl.O=C(O)c1ccc2c(n1)C(N1CCNCC1)CNC2` (stereo not shown) [Example 22] the “IC50 ratio” value was 0.67.
With `Cl.O=C(O)c1ccc2c(n1)CC(CCc1ccccc1)NC2` (stereo not shown) [Example 35] the “IC50 ratio” value was 0.12.
In the case of `CCC1(CC)Cc2nc(C(=O)O)ccc2CN1.Cl` [Example 45, 7,7-diethyl-5,6,7,8-tetrahydro-1,6-naphthyridine-2-carboxylic acid hydrochloride], the “IC50 ratio” value was 0.57.
In the case of `Cl.O=C(O)c1ccc2c(n1)C(N1CCOC(Cc3ccccc3)C1)CNC2` (stereo not shown) [Example 15, 8-(2-benzylmorpholino)-5,6,7,8-tetrahydro-1,6-naphthyridine-2-carboxylic acid hydrochloride], the “IC50 ratio” value was 0.57.
In the case of `Cl.O=C(O)c1ccc2c(n1)CC(CO)(CO)NC2` [Example 25], the “IC50 ratio” value was 6.36.
In the case of `CC(C)(O)C1Cc2nc(C(=O)O)ccc2CN1.Cl` (stereo not shown) [Example 24], the “IC50 ratio” value was 1.67.
For `NC1CNCc2ccc(C(=O)O)nc21` (stereo not shown) [Example 3, 8-amino-5,6,7,8-tetrahydro-1,6-naphthyridine-2-carboxylic acid dihydrochloride], the “IC50 ratio” value was 2.89.
In the case of `Cl.O=C(O)c1ccc2c(n1)CC(C(O)c1ccccc1)NC2` (stereo not shown) [Example 12, 7-(hydroxy(phenyl)methyl)-5,6,7,8-tetrahydro-1,6-naphthyridine-2-carboxylic acid hydrochloride], the “IC50 ratio” value was 0.88.
For `Cl.O=C(O)c1ccc2c(n1)CC(C(=O)O)NC2` (stereo not shown) [Example 16, 5,6,7,8-tetrahydro-1,6-naphthyridine-2,7-dicarboxylic acid hydrochloride], the “IC50 ratio” value was 0.54.
For `O=C(O)c1ccc2c(n1)CC(CNCCO)NC2` (stereo not shown) [Example 31], the “IC50 ratio” value was 1.87.
In the case of `Cl.O=C(O)c1ccc2c(n1)C(N1CCSCC1)CNC2` (stereo not shown) [Example 20], the “IC50 ratio” value was 0.50.
In the case of `CC(C)(C)CCC1Cc2nc(C(=O)O)ccc2CN1.Cl` (stereo not shown) [Example 40], the “IC50 ratio” value was 0.18.
In the case of `Cl.O=C(O)c1ccc2c(n1)CC1(CCOCC1)NC2` [Example 44], the “IC50 ratio” value was 0.23.
In the case of `Cl.O=C(O)c1ccc2c(n1)CC(CC1CCCCC1)NC2` (stereo not shown) [Example 41], the “IC50 ratio” value was 0.12.
In the case of `CC(C)CC1Cc2nc(C(=O)O)ccc2CN1.Cl` (stereo not shown) [Example 26], the “IC50 ratio” value was 0.22.
With `Cl.O=C(O)c1nc2c(cc1F)CNCC2` [Example 17, 3-fluoro-5,6,7,8-tetrahydro-1,6-naphthyridine-2-carboxylic acid hydrochloride] the “IC50 ratio” value was 0.34.
In the case of `Cl.O=C(O)c1ccc2c(n1)C(O)CNC2` (stereo not shown) [Example 2, 8-hydroxy-5,6,7,8-tetrahydro-1,6-naphthyridine-2-carboxylic acid hydrochloride], the “IC50 ratio” value was 1.24.
For `Cl.O=C(O)c1ccc2c(n1)CC(CCCc1ccccc1)NC2` (stereo not shown) [Example 34], the “IC50 ratio” value was 0.11.

Test system: fibrinolysis
Experiment: not given
Conditions: cited from earlier work
In the case of `NC[C@H]1CC[C@H](C(=O)O)CC1` [tranexamic acid, trans-4-aminomethyl-cyclohexane-carboxylic acid], the “anti-fibrinolytic activity relative to EACA” value is listed as “about 10 times”.

Test system: not listed separately
Experiment: Monkey PK experiment (plasma concentration by LC-MS/MS)
Format: in vivo
Conditions: male cynomolgus monkey, 1 mg/kg intravenous injection, single dose, fasted
Experimental: Male Cynomolgus monkey, normal grade, 3 monkeys each group (N=3)
The compound is weighed and dissolved in normal saline to prepare a 0.5 mg/mL clear solution for intravenous administration.
On the day of the experiment, the animals were administered according to the scheme in the table below. At each time point after administration, approximately 1 mL of blood was collected from the forearm vein and placed in heparin sodium anticoagulation tubes. Blood samples were placed on ice after collection, and the plasma was separated by centrifugation within 1 hour (centrifugation conditions: 2200 g, 10 minutes, 2-8° C.). The plasma samples were stored in a refrigerator at −80° C. until analysis.
The compound concentration in cynomolgus monkey plasma was determined by the following method: • Instruments and equipment: LC-MS/MS-19 (TQ5500, AB SCIEX, USA). • Internal standard: warfarin. • Chromatographic column: ACQUITY UPLC BEH C18, model 1.7 um 2.1*50 mm, purchased from Shenzhen Novah Chemical Technology Co., Ltd.; • Flow rate: 0.60 ml/min. • Column temperature: 40° C. • Mobile phase A: 0.1% formic acid in water. • Mobile phase B: 0.1% formic acid in acetonitrile.
Take 30 μL of the plasma sample prepared from item “2” , add 300 μL MeOH containing 100 ng/mL of internal standard to precipitate protein. The mixture was vortexed for 1 minute and centrifuged at 18000 g for 7 minutes. The supernatant was transferred to a 96-well plate. Inject 4 μL of supernatant into LC-MS/MS for analysis.
Pharmacokinetic parameters were calculated by using Phoenix WinNonlin7.0 software according to blood concentration data of different time points.
`Cl.O=C(O)c1ccc2c(n1)CCNC2` [Example 1, 5,6,7,8-tetrahydro-1,6-naphthyridine-2-carboxylic acid hydrochloride] gave an AUC of 4110 ng·h/mL, a Cmax of 10600 ng/mL and a clearance of 4 mL/min/kg.
